Data as given in paper PMC6268880, “IMB2026791, a Xanthone, Stimulates Cholesterol Efflux by Increasing the Binding of Apolipoprotein A-I to ATP-Binding Cassette Transporter A1” (Molecules, 2012).

Biological target: T1, ATP-binding cassette transporter A1 (ABCA1) (Homo sapiens, UniProt O95477)
T1 construct: full-length ABCA1 (pIRES2-EGFP-ABCA1) in CHO cells; with apoA-I
Test: cell-based ELISA-like apoA-I binding to ABCA1-transfected CHO cells, with vector-only control; western blot

T1 sequence (O95477 whole entry): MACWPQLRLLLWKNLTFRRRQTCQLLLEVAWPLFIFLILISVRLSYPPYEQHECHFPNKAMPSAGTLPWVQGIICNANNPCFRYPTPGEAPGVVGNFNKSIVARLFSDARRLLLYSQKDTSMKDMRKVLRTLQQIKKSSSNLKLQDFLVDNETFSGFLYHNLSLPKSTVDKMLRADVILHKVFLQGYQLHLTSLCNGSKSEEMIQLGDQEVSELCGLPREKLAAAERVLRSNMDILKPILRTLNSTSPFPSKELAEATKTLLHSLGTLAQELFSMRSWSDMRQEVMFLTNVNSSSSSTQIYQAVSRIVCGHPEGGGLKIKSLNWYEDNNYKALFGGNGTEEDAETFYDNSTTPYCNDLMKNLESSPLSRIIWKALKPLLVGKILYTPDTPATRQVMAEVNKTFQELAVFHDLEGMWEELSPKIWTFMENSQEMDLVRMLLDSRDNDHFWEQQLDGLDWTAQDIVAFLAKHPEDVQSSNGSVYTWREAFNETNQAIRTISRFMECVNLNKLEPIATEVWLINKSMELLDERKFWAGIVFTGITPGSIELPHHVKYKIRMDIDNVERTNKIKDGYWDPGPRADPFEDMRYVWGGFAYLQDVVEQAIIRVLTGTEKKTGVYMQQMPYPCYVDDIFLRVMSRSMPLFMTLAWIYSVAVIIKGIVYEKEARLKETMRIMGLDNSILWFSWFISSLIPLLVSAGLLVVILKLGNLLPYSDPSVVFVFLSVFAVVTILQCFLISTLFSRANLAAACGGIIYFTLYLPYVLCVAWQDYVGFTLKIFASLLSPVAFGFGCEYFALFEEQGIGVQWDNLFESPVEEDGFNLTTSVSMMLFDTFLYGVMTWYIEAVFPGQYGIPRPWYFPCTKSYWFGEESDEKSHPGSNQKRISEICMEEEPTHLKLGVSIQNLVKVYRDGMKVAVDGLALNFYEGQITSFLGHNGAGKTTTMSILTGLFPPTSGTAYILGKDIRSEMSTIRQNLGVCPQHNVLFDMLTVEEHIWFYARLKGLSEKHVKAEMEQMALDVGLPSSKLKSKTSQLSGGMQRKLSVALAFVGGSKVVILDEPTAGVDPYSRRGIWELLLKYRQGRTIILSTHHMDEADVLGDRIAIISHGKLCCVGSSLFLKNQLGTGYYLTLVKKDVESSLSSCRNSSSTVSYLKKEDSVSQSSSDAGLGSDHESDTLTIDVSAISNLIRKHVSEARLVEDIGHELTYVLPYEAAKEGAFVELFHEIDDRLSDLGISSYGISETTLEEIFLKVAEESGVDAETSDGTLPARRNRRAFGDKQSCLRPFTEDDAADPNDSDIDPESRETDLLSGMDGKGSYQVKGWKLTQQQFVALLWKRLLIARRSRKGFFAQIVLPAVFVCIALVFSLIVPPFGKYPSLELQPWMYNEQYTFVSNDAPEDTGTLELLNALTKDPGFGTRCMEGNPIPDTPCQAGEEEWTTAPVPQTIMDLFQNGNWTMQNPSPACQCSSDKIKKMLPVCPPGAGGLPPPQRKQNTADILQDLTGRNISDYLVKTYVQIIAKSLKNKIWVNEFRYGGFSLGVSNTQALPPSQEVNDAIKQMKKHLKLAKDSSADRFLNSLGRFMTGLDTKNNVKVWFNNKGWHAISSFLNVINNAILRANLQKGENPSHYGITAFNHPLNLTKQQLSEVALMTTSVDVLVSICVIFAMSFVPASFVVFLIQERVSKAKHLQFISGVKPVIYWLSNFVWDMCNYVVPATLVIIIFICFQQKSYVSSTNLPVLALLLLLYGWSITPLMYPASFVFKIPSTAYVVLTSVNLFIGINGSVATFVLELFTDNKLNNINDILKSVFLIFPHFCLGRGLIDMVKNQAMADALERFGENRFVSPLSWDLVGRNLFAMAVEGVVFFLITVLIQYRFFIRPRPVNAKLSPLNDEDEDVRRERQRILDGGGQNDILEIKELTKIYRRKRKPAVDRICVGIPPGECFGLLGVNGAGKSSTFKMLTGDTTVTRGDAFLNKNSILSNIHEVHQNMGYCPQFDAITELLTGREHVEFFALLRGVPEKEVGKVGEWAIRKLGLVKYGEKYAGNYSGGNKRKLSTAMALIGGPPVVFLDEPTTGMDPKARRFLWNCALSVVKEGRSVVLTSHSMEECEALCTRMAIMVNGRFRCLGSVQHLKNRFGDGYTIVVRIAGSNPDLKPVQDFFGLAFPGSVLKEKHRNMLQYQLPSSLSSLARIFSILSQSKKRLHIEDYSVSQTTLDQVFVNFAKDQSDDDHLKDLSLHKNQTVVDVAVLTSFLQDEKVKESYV
T1 sequence (P02647 25-267 partner): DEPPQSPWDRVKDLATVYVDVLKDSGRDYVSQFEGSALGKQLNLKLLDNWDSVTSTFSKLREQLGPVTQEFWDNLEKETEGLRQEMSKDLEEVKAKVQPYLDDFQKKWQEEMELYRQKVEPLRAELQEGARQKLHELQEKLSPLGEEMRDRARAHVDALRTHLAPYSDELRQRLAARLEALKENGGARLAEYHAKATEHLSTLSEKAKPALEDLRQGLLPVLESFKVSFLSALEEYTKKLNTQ

COc1ccc(Cl)cc1C(=O)NCCc1ccc(S(=O)(=O)NC(=O)NC2CCCCC2)cc1 [glibenclamide]
cell-based ELISA-like apoA-I binding to ABCA1-transfected CHO cells, with vector: an inhibition by glibenclamide was observed on transfected cells expressing ABCA1
